Measurements from patent US7273861B2, “Non-nucleoside reverse transcriptase inhibitors” (Boehringer Ingelheim (Canada) Ltd., priority 2002, dated 2007).
Like-named read-outs stand apart in the source and are kept apart here.

Tests used:
[1] = target: T1, HIV-1 RT WT (Human immunodeficiency virus type 1 group M subtype B, UniProt P03366); test: Reverse Transcriptase (RT) assay, wild type; type: biochemical
T1 construct: mutations that occur in the reverse transcriptase segment of the pol gene
Text: (§1) Based upon testing of these compounds, as described below, it is known that they inhibit the RNA-dependent DNA polymerase activity of HIV-1 RT. Utilizing the Reverse Transcriptase (RT) Assay described below, compounds can be tested for their ability to inhibit the RNA-dependent DNA polymerase activity of HIV-1 RT. Certain specific compounds described in the Examples which appear below, were so tested. The results of this testing appear in Table 2 as IC50 (nM) and EC50 (nM).
(§2) The assays are as described in WO 01/96338A1, the contents of which are hereby incorporated herein. The results are listed in Table 2 as IC50(nM) and EC50 (nM).

[2] = target: T2, HIV-1 RT K103N/Y181C (Human immunodeficiency virus type 1 group M subtype B, UniProt P03366, K702N/Y780C); test: Reverse Transcriptase (RT) assay, double mutant K103N/Y181C; type: biochemical
T2 construct: mutations that occur in the reverse transcriptase segment of the pol gene
Text: as §1, §2

[3] = tested on: wild type HIV-1 replication; test: Cell-based assay, wild type HIV
Text: as §2

In the case of `CCN1c2ncc(CCOc3ccc(C(=O)O)cc3C)cc2-c2ncc(C)n2-c2cccnc21` [Entry 118], the IC50 [1] is reported as < 50 nM and the IC50 [2] is reported as < 50 nM.

With `CCN1c2ncc(CCOc3cccc4c3CS(=O)(=O)N4CC(=O)OC(C)(C)C)cc2-c2nccn2-c2c(C)ccnc21` [Entry 114] the IC50 [1] was < 50 nM and the IC50 [2] was 50 to 100 nM.

`CCN1c2ncc(CCOc3cccc4c3CS(=O)(=O)N4)cc2-c2nccn2-c2c(C)ccnc21` [Entry 113] was tested, and the IC50 [1] was < 50 nM and the IC50 [2] was 50 to 100 nM.

For `CCN1c2ncc(CCOc3cccc4c3CNC(=O)N4)cc2-c2nc(C)cn2-c2cccnc21` [Entry 101], the IC50 [1] was < 50 nM and the IC50 [2] was > 100 nM.

`CCN1c2ncc(CCOc3cccc4c3CNC(=O)N4)cc2-c2nccn2-c2c(C)ccnc21` [Entry 108] was tested, and the IC50 [1] was < 50 nM and the IC50 [2] was < 50 nM.

For `CCN1c2ncc(CCOc3ccc4c(c3)C(C)(C)NS4(=O)=O)cc2-c2nccn2-c2c(C)ccnc21` [Entry 107], the IC50 [1] was < 50 nM and the IC50 [2] was < 50 nM.

For `CCN1c2ncc(CCOc3ccc(C(=O)O)c4ccccc34)cc2-c2ncc(C)n2-c2cccnc21` [Entry 122], the IC50 [1] was < 50 nM and the IC50 [2] was > 100 nM.

In the case of `CCN1c2ncc(CCOc3cccc4c3CNC4=O)cc2-c2ncc(C)n2-c2cccnc21` [Entry 103], the EC50 ([3]; Human immunodeficiency virus 1) is reported as < 10 nM, the IC50 [1] is reported as < 50 nM and the IC50 [2] is reported as > 100 nM.

For `CCN1c2ncc(CCOc3cccc4c3COC(=O)N4)cc2-c2ncc(C)n2-c2cccnc21` [Entry 106], the IC50 [1] was < 50 nM and the IC50 [2] was > 100 nM.

With `CCN1c2ncc(CCOc3ccc(-c4ccc(CC(=O)O)cc4)cc3C)cc2-c2ncc(C)n2-c2cccnc21` [Entry 120] the IC50 [1] was < 50 nM and the IC50 [2] was 50 to 100 nM.

In the case of `CCOC(=O)N1c2cccc(OCCc3cnc4c(c3)-c3nccn3-c3c(C)ccnc3N4CC)c2CS1(=O)=O` [Entry 112], the IC50 [1] is reported as < 50 nM and the IC50 [2] is reported as < 50 nM.

`CCN1c2ncc(CCOc3cccc4c3CN(C)C(=O)N4C)cc2-c2ncc(C)n2-c2cccnc21` [Entry 111] was tested, and the IC50 [1] was < 50 nM and the IC50 [2] was > 100 nM.

For `CCN1c2ncc(CCOc3cccc4c3CCS(=O)(=O)N4)cc2-c2ncc(C)n2-c2cccnc21` [Entry 104], the IC50 [1] was < 50 nM and the IC50 [2] was 50 to 100 nM.

`CCN1c2ncc(CCOc3cccc4c3CS(=O)(=O)N4CC(=O)O)cc2-c2nccn2-c2c(C)ccnc21` [Entry 115] was tested, and the EC50 ([3]; Human immunodeficiency virus 1) was > 50 nM, the IC50 [1] was < 50 nM and the IC50 [2] was 50 to 100 nM.

With `CCN1c2ncc(CCOc3ccc(C(=O)O)cc3C)cc2-c2nccn2-c2cccnc21` [Entry 117] the EC50 ([3]; Human immunodeficiency virus 1) was < 10 nM, the IC50 [1] was < 50 nM and the IC50 [2] was > 100 nM.

For `CCN1c2ncc(CCOc3cccc4c3CCNC4=O)cc2-c2ncc(C)n2-c2cccnc21` [Entry 110, 9-Ethyl-3-methyl-12-{2-{(1,2,3,4-ttrahydro-1-oxo-5-isoquinolinyl)oxy}ethyl}-9H-imidazo[1,2-d]dipyrido[2,3-b:3′,2′-f][1,4]diazepine], the IC50 [1] was < 50 nM and the IC50 [2] was > 100 nM.

In the case of “4′-{(9H-imidazo[1,2-d]dipyrido[2,3-b:3′,2′-f][1,4]diazepin-12-yl)ethoxy}-3′-methyl-[1,1′-biphenyl]4-acetic acid [Entry 119]”, the EC50 [3] is reported as < 10 nM, the IC50 ([1]; wild type RT, read-out: IC50 WT) is reported as < 50 nM and the IC50 ([2]; double mutant K103N/Y181C RT, read-out: IC50 K103N/Y181C) is reported as < 50 nM.

With `CCN1c2ncc(CCOc3cccc4c3CNC(=O)N4)cc2-c2nccn2-c2cccnc21` [Entry 109] the IC50 [1] was < 50 nM and the IC50 [2] was < 50 nM.

`CCN1c2ncc(CCOc3cccc4c3CNS4(=O)=O)cc2-c2ncc(C)n2-c2cccnc21` [Entry 105] was tested, and the IC50 [1] was < 50 nM and the IC50 [2] was < 50 nM.

For `CCN1c2ncc(CCOc3cccc4c3C=CS(=O)(=O)N4C)cc2-c2ncc(C)n2-c2cccnc21` [Entry 102], the EC50 ([3]; Human immunodeficiency virus 1) was < 10 nM, the IC50 [1] was < 50 nM and the IC50 [2] was < 50 nM.

In the case of `CCN1c2ncc(CCOc3ccc(C(=O)O)c4c3CCCC4)cc2-c2ncc(C)n2-c2cccnc21` [Entry 121], the IC50 [1] is reported as < 50 nM and the IC50 [2] is reported as > 100 nM.
